Converted amounts (≈) assume the structure as drawn.
Tested on: Escherichia coli
Assay: Antibacterial activity against Escherichia coli TOP10 expressing AmpC-A by agar dilution method
Type: functional

| Compound | MIC [µg/mL] |
| --- | --- |
| CO[C@@]1(NC(=O)Cc2cccs2)C(=O)N2C(C(=O)O)=C(COC(N)=O)CS[C@@H]21 [CEFOXITIN] | 128 (≈ 299 µM) |
| CC(C)(O/N=C(\C(=O)N[C@@H]1C(=O)N2C(C(=O)[O-])=C(C[n+]3ccccc3)CS[C@H]12)c1csc(N)n1)C(=O)O [CEFTAZIDIME] | 2 (≈ 3.66 µM) |
| CC(=O)OCC1=C(C(=O)O)N2C(=O)[C@@H](NC(=O)Cc3cccs3)[C@H]2SC1 [CEPHALOTHIN] | > 512 |
| C[C@@H](O)[C@H]1C(=O)N2C(C(=O)O)=C(SCCNC=N)C[C@H]12 [IMIPENEM ANHYDROUS] | 0.06 (≈ 0.2 µM) |
| CC1(C)S[C@@H]2[C@H](NC(=O)[C@H](C(=O)O)c3ccsc3)C(=O)N2[C@H]1C(=O)O [TICARCILLIN] | 2 (≈ 5.2 µM) |

Tested on: Escherichia coli
Assay: Antibacterial activity against Escherichia coli TOP10 expressing AmpC-A by agar dilution method in presence of 2 mg/liter clavulanic acid
Type: functional

| Compound | MIC [µg/mL] |
| --- | --- |
| CC1(C)S[C@@H]2[C@H](NC(=O)[C@H](C(=O)O)c3ccsc3)C(=O)N2[C@H]1C(=O)O [TICARCILLIN] | 2 |

Tested on: Escherichia coli
Assay: Antibacterial activity against Escherichia coli TOP10 expressing AmpC-A S287N mutant protein by agar dilution method
Type: functional

| Compound | MIC [µg/mL] |
| --- | --- |
| CO[C@@]1(NC(=O)Cc2cccs2)C(=O)N2C(C(=O)O)=C(COC(N)=O)CS[C@@H]21 [CEFOXITIN] | 32 (≈ 74.9 µM) |
| CC(C)(O/N=C(\C(=O)N[C@@H]1C(=O)N2C(C(=O)[O-])=C(C[n+]3ccccc3)CS[C@H]12)c1csc(N)n1)C(=O)O [CEFTAZIDIME] | 512 (≈ 937 µM) |
| C[C@@H](O)[C@H]1C(=O)N2C(C(=O)O)=C(SCCNC=N)C[C@H]12 [IMIPENEM ANHYDROUS] | 0.06 (≈ 0.2 µM) |
| CC1(C)S[C@@H]2[C@H](NC(=O)[C@H](C(=O)O)c3ccsc3)C(=O)N2[C@H]1C(=O)O [TICARCILLIN] | 256 (≈ 666 µM) |

Tested on: Escherichia coli
Assay: Antibacterial activity against Escherichia coli TOP10 expressing AmpC-A S287N mutant protein by agar dilution method in presence of 2 mg/liter clavulanic acid
Type: functional

| Compound | MIC [µg/mL] |
| --- | --- |
| CC1(C)S[C@@H]2[C@H](NC(=O)[C@H](C(=O)O)c3ccsc3)C(=O)N2[C@H]1C(=O)O [TICARCILLIN] | 256 |

Tested on: Escherichia coli
Assay: Antibacterial activity against Escherichia coli TOP10 expressing AmpC-B2 by agar dilution method
Type: functional

| Compound | MIC [µg/mL] |
| --- | --- |
| CO[C@@]1(NC(=O)Cc2cccs2)C(=O)N2C(C(=O)O)=C(COC(N)=O)CS[C@@H]21 [CEFOXITIN] | 128 (≈ 299 µM) |
| CC(C)(O/N=C(\C(=O)N[C@@H]1C(=O)N2C(C(=O)[O-])=C(C[n+]3ccccc3)CS[C@H]12)c1csc(N)n1)C(=O)O [CEFTAZIDIME] | 1 (≈ 1.83 µM) |
| CC(=O)OCC1=C(C(=O)O)N2C(=O)[C@@H](NC(=O)Cc3cccs3)[C@H]2SC1 [CEPHALOTHIN] | > 512 |
| C[C@@H](O)[C@H]1C(=O)N2C(C(=O)O)=C(SCCNC=N)C[C@H]12 [IMIPENEM ANHYDROUS] | 0.06 (≈ 0.2 µM) |
| CC1(C)S[C@@H]2[C@H](NC(=O)[C@H](C(=O)O)c3ccsc3)C(=O)N2[C@H]1C(=O)O [TICARCILLIN] | 2 (≈ 5.2 µM) |

Tested on: Escherichia coli
Assay: Antibacterial activity against Escherichia coli TOP10 expressing AmpC-B2 by agar dilution method in presence of 2 mg/liter clavulanic acid
Type: functional

| Compound | MIC [µg/mL] |
| --- | --- |
| CC1(C)S[C@@H]2[C@H](NC(=O)[C@H](C(=O)O)c3ccsc3)C(=O)N2[C@H]1C(=O)O [TICARCILLIN] | 2 |

Tested on: Escherichia coli
Assay: Antibacterial activity against Escherichia coli TOP10 expressing AmpC-B2 S287N mutant protein by agar dilution method
Type: functional

| Compound | MIC [µg/mL] |
| --- | --- |
| CO[C@@]1(NC(=O)Cc2cccs2)C(=O)N2C(C(=O)O)=C(COC(N)=O)CS[C@@H]21 [CEFOXITIN] | 128 (≈ 299 µM) |
| CC(C)(O/N=C(\C(=O)N[C@@H]1C(=O)N2C(C(=O)[O-])=C(C[n+]3ccccc3)CS[C@H]12)c1csc(N)n1)C(=O)O [CEFTAZIDIME] | 4 (≈ 7.32 µM) |
| C[C@@H](O)[C@H]1C(=O)N2C(C(=O)O)=C(SCCNC=N)C[C@H]12 [IMIPENEM ANHYDROUS] | 0.06 (≈ 0.2 µM) |
| CC1(C)S[C@@H]2[C@H](NC(=O)[C@H](C(=O)O)c3ccsc3)C(=O)N2[C@H]1C(=O)O [TICARCILLIN] | 64 (≈ 166 µM) |

Tested on: Escherichia coli
Assay: Antibacterial activity against Escherichia coli TOP10 expressing AmpC-B2 S287N mutant protein by agar dilution method in presence of 2 mg/liter clavulanic acid
Type: functional

| Compound | MIC [µg/mL] |
| --- | --- |
| CC1(C)S[C@@H]2[C@H](NC(=O)[C@H](C(=O)O)c3ccsc3)C(=O)N2[C@H]1C(=O)O [TICARCILLIN] | 64 |

Tested on: Escherichia coli
Assay: Antibacterial activity against Escherichia coli TOP10 by agar dilution method
Type: functional

| Compound | MIC [µg/mL] |
| --- | --- |
| CO[C@@]1(NC(=O)Cc2cccs2)C(=O)N2C(C(=O)O)=C(COC(N)=O)CS[C@@H]21 [CEFOXITIN] | 2 (≈ 4.68 µM) |
| CC(C)(O/N=C(\C(=O)N[C@@H]1C(=O)N2C(C(=O)[O-])=C(C[n+]3ccccc3)CS[C@H]12)c1csc(N)n1)C(=O)O [CEFTAZIDIME] | 0.06 (≈ 0.11 µM) |
| CC(=O)OCC1=C(C(=O)O)N2C(=O)[C@@H](NC(=O)Cc3cccs3)[C@H]2SC1 [CEPHALOTHIN] | 2 (≈ 5.04 µM) |
| CC1(C)S[C@@H]2[C@H](NC(=O)[C@H](C(=O)O)c3ccsc3)C(=O)N2[C@H]1C(=O)O [TICARCILLIN] | 1 (≈ 2.6 µM) |

Tested on: Escherichia coli
Assay: Antibacterial activity against Escherichia coli TOP10 by agar dilution method in presence of 2 mg/liter clavulanic acid
Type: functional

| Compound | MIC [µg/mL] |
| --- | --- |
| CC1(C)S[C@@H]2[C@H](NC(=O)[C@H](C(=O)O)c3ccsc3)C(=O)N2[C@H]1C(=O)O [TICARCILLIN] | 1 |

Tested on: Escherichia coli
Assay: Activity of Escherichia coli TOP10 beta-lactamase AmpC-B2

| Compound | kcat [s⁻¹] | Km [µM] |
| --- | --- | --- |
| O=C(Cc1cccs1)N[C@@H]1C(=O)N2C(C(=O)[O-])=C(C[n+]3ccccc3)CS[C@H]12 | 240 | – |
| CO[C@@]1(NC(=O)Cc2cccs2)C(=O)N2C(C(=O)O)=C(COC(N)=O)CS[C@@H]21 [CEFOXITIN] | 0.4 | 1.5 |
| CC(C)(O/N=C(\C(=O)N[C@@H]1C(=O)N2C(C(=O)[O-])=C(C[n+]3ccccc3)CS[C@H]12)c1csc(N)n1)C(=O)O [CEFTAZIDIME] | 0.3 | – |
| CC(=O)OCC1=C(C(=O)O)N2C(=O)[C@@H](NC(=O)Cc3cccs3)[C@H]2SC1 [CEPHALOTHIN] | 540 | 85 |
| C[C@@H](O)[C@H]1C(=O)N2C(C(=O)O)=C(SCCNC=N)C[C@H]12 [IMIPENEM ANHYDROUS] | 0.09 | 32 |

Tested on: Escherichia coli
Assay: Activity of Escherichia coli TOP10 beta-lactamase AmpC-B2 S287N mutant

| Compound | kcat [s⁻¹] | Km [µM] |
| --- | --- | --- |
| O=C(Cc1cccs1)N[C@@H]1C(=O)N2C(C(=O)[O-])=C(C[n+]3ccccc3)CS[C@H]12 | 112 | – |
| CO[C@@]1(NC(=O)Cc2cccs2)C(=O)N2C(C(=O)O)=C(COC(N)=O)CS[C@@H]21 [CEFOXITIN] | 0.08 | 800 |
| CC(C)(O/N=C(\C(=O)N[C@@H]1C(=O)N2C(C(=O)[O-])=C(C[n+]3ccccc3)CS[C@H]12)c1csc(N)n1)C(=O)O [CEFTAZIDIME] | 0.01 | 1000 |
| CC(=O)OCC1=C(C(=O)O)N2C(=O)[C@@H](NC(=O)Cc3cccs3)[C@H]2SC1 [CEPHALOTHIN] | 10 | – |
| C[C@@H](O)[C@H]1C(=O)N2C(C(=O)O)=C(SCCNC=N)C[C@H]12 [IMIPENEM ANHYDROUS] | 0.06 | 2000 |

Tested on: Escherichia coli
Assay: Activity of Escherichia coli TOP10 beta-lactamase AmpC-A

| Compound | kcat [s⁻¹] | Km [µM] |
| --- | --- | --- |
| O=C(Cc1cccs1)N[C@@H]1C(=O)N2C(C(=O)[O-])=C(C[n+]3ccccc3)CS[C@H]12 | 230 | – |
| CO[C@@]1(NC(=O)Cc2cccs2)C(=O)N2C(C(=O)O)=C(COC(N)=O)CS[C@@H]21 [CEFOXITIN] | 0.3 | 1 |
| CC(C)(O/N=C(\C(=O)N[C@@H]1C(=O)N2C(C(=O)[O-])=C(C[n+]3ccccc3)CS[C@H]12)c1csc(N)n1)C(=O)O [CEFTAZIDIME] | 0.5 | 70 |
| CC(=O)OCC1=C(C(=O)O)N2C(=O)[C@@H](NC(=O)Cc3cccs3)[C@H]2SC1 [CEPHALOTHIN] | 500 | 30 |

Tested on: Escherichia coli
Assay: Activity of Escherichia coli TOP10 beta-lactamase AmpC-A S287N mutant

| Compound | kcat [s⁻¹] | Km [µM] |
| --- | --- | --- |
| O=C(Cc1cccs1)N[C@@H]1C(=O)N2C(C(=O)[O-])=C(C[n+]3ccccc3)CS[C@H]12 | 50 | – |
| CO[C@@]1(NC(=O)Cc2cccs2)C(=O)N2C(C(=O)O)=C(COC(N)=O)CS[C@@H]21 [CEFOXITIN] | 0.1 | 700 |
| CC(C)(O/N=C(\C(=O)N[C@@H]1C(=O)N2C(C(=O)[O-])=C(C[n+]3ccccc3)CS[C@H]12)c1csc(N)n1)C(=O)O [CEFTAZIDIME] | 0.2 | 400 |
| CC(=O)OCC1=C(C(=O)O)N2C(=O)[C@@H](NC(=O)Cc3cccs3)[C@H]2SC1 [CEPHALOTHIN] | 65 | 5500 |
| C[C@@H](O)[C@H]1C(=O)N2C(C(=O)O)=C(SCCNC=N)C[C@H]12 [IMIPENEM ANHYDROUS] | 0.06 | 200 |
